Source: ChEMBL document CHEMBL4359834 (J Med Chem, 2019)
pIC50, pKd, pKi: −log10 of the molar value. Active and inactive are the calls of the source. The rule behind the calls is not given here.

Tests used:
[1] = Half-life clearance in human hepatocytes; format: ADME, cell-based, Hepatocyte
[2] = Half-life in mouse hepatocytes; format: ADME, cell-based, Hepatocyte
[3] = Half-life in dog hepatocytes; format: ADME, cell-based, Canis lupus familiaris, Hepatocyte
[4] = Intrinsic clearance in rat hepatocytes assessed per 10^6 cells; format: ADME, cell-based, Hepatocyte; conditions: read-out: CLH
[5] = Half-life in rat hepatocytes; format: ADME, cell-based, Hepatocyte
[6] = Intrinsic clearance in mouse hepatocytes assessed per 10^6 cells; format: ADME, cell-based, Hepatocyte; conditions: read-out: CLH
[7] = Intrinsic clearance in human hepatocytes assessed per 10^6 cells; format: ADME, cell-based, Hepatocyte; conditions: read-out: CLH
[8] = Intrinsic clearance in dog hepatocytes assessed per 10^6 cells; format: ADME, cell-based, Canis lupus familiaris, Hepatocyte; conditions: read-out: CLH
[9] = Inhibition of Class 1 PI3K/mTOR in human A2058 cells assessed as reduction in Akt phosphorylation at Ser473 residue incubated for 1 hr by InCell Western assay; format: cell-based; conditions: A2058, 1 h
[10] = target: Serine/threonine-protein kinase mTOR (Homo sapiens, UniProt P42345); test: Displacement of Alexafluor labelled kinase tracer314 from recombinant human C-terminal GST-tagged mTOR (1360 to 2549 amino acids) expressed in insect cells incubated for 1 hr by FRET-based LanthaScreen Eu kinase binding assay
[11] = cells; conditions: Homo sapiens, A2058, 1 h
Description: Inhibition of Class 1 PI3K/mTOR in human A2058 cells assessed as reduction in S6 phosphorylation at Ser235/236 residue incubated for 1 hr by InCell Western assay

[12] = target: T1, Phosphatidylinositol 4,5-bisphosphate 3-kinase catalytic subunit alpha isoform (Homo sapiens, UniProt P42336); test: Displacement of Alexafluor labelled kinase tracer314 from recombinant N-terminal His6-tagged PI3K p110alpha (unknown origin) incubated for 1 hr by FRET-based LanthaScreen Eu kinase binding assay
[13] = target: Phosphatidylinositol 4,5-bisphosphate 3-kinase catalytic subunit gamma isoform (Homo sapiens, UniProt P48736); test: Binding affinity to wild-type human partial length PIK3CG (S144 to A1102 residues) expressed in mammalian expression system by quantitative PCR based KINOMEscan assay
[14] = Toxicity in po dosed female Beagle dog; format: organism-based, Canis lupus familiaris; conditions: in vivo
[15] = AUClast at steady state in male Beagle dog at 1 mg/kg/day, po after 4 weeks; format: ADME, organism-based, Canis lupus familiaris; conditions: in vivo
[16] = AUC (0 to 8 hrs) at steady state in male Wistar rat at 1 mg/kg/day, po after 4 weeks; format: ADME, organism-based; design: dose 1 mg/kg/day, time < 8 hr, route oral; conditions: in vivo
[17] = test system: SK-OV-3; test: Antiproliferative activity against human SKOV3 cells at 5 to 0.02 uM after 72 hrs by […] staining based assay; format: functional, cell-based
[18] = test system: OVCAR-3; test: Antitumor activity against human OVCAR3 cells xenografted in BALB/c nude mouse assessed as reduction in tumor growth at 25 mg/kg, po administered once daily starting from 17 days post inoculation and measured thrice per week; format: functional, organism-based
[19] = Tmax in C57BL/6J mouse plasma at 50 mg/kg, po administered as single dose by LC-MS analysis; format: ADME, organism-based
[20] = Metabolic stability in rat liver microsomes assessed as compound remaining after 30 mins; format: ADME, Microsome; conditions: read-out: Stability
[21] = Metabolic stability in human liver microsomes assessed as compound remaining after 30 mins; format: ADME, Microsome; conditions: read-out: Stability
[22] = Metabolic stability in mouse liver microsomes assessed as compound remaining after 30 mins; format: ADME, Microsome; conditions: read-out: Stability
[23] = Terminal half-life in C57BL/6J mouse brain at 50 mg/kg, po administered as single dose by LC-MS analysis; format: ADME, organism-based; conditions: read-out: beta t1/2 (converted)
[24] = Clearance in C57BL/6J mouse plasma at 50 mg/kg, po administered as single dose by LC-MS analysis; format: ADME, organism-based
[25] = Cmax in C57BL/6J mouse thigh muscle at 50 mg/kg, po administered as single dose after 30 mins by LC-MS analysis; format: ADME, organism-based; design: dose 50 mg/kg, route oral
[26] = test system: A2058; test: Inhibition of Class 1 PI3K/mTOR in human A2058 cells assessed as reduction in p70S6K phosphorylation incubated for 1 hr by InCell Western assay; format: cell-based
[27] = Fraction unbound in rat brain; format: ADME, tissue-based
[28] = Terminal half-life in C57BL/6J mouse thigh muscle at 50 mg/kg, po administered as single dose by LC-MS analysis; format: ADME, organism-based; conditions: read-out: beta t1/2 (converted)
[29] = Cmax in C57BL/6J mouse plasma at 50 mg/kg, po administered as single dose after 30 mins by LC-MS analysis; format: ADME, organism-based; design: dose 50 mg/kg, route oral
[30] = test system: A2058; test: Inhibition of Class 1 PI3K/mTOR in human A2058 cells assessed as reduction in Akt phosphorylation incubated for 1 hr by InCell Western assay; format: cell-based
[31] = Toxicity in po dosed male Beagle dog; format: organism-based, Canis lupus familiaris; conditions: in vivo
[32] = Tmax in C57BL/6J mouse brain at 50 mg/kg, po administered as single dose by LC-MS analysis; format: ADME, organism-based
[33] = test system: A2058; test: Antiproliferative activity against human A2058 cells at 5 to 0.02 uM after 72 hrs by […] staining based assay; format: functional, cell-based
[34] = test system: A2058; test: Inhibition of Class 1 PI3K/mTOR in human A2058 cells assessed as reduction in GSK3 phosphorylation incubated for 1 hr by InCell Western assay; format: cell-based
[35] = AUC (0 to 8 hrs) at steady state in female Wistar rat at 0.5 mg/kg, po after 4 weeks; format: ADME, organism-based; design: time < 8 hr, dose 0.5 mg/kg, route oral; conditions: in vivo
[36] = target: T1, Phosphatidylinositol 4,5-bisphosphate 3-kinase catalytic subunit alpha isoform; test: Binding affinity to wild-type human partial length PIK3CA (R108 to N1068 residues) expressed in mammalian expression system by quantitative PCR based KINOMEscan assay
[37] = target: PI3-kinase p110-alpha/p85-alpha (Homo sapiens) (UniProt P27986+P42336); test: Inhibition of Wortmannin covalent binding to N-terminal His-tagged recombinant human PI3K p110alpha/p85alpha Lys802 expressed in baculovirus expression system preincubated for 1 hr followed by Wortmannin addition and measured after 20 mins by SDS-PAGE based immunoblot assay
[38] = AUClast at steady state in female Beagle dog at 3 mg/kg/day, po after 4 weeks; format: ADME, organism-based, Canis lupus familiaris; conditions: in vivo
[39] = Metabolic stability in dog liver microsomes assessed as compound remaining after 30 mins; format: ADME, Canis lupus familiaris, Microsome; conditions: read-out: Stability
[40] = Toxicity in BALB/c nude mouse assessed as effect on body weight at 25 mg/kg, po administered once daily starting from 17 days post inoculation and measured after 20 to 40 days post inoculation; format: organism-based; conditions: in vivo
[41] = Tmax in C57BL/6J mouse thigh muscle at 50 mg/kg, po administered as single dose by LC-MS analysis; format: ADME, organism-based
[42] = AUC (0 to 8 hrs) in C57BL/6J mouse brain at 50 mg/kg, po administered as single dose by LC-MS analysis; format: ADME, organism-based; design: dose 50 mg/kg, time < 8 hr, route oral
[43] = Terminal half-life in C57BL/6J mouse plasma at 50 mg/kg, po administered as single dose by LC-MS analysis; format: ADME, organism-based; conditions: read-out: beta t1/2 (converted)
[44] = Cmax in C57BL/6J mouse brain at 50 mg/kg, po administered as single dose after 30 mins by LC-MS analysis; format: ADME, organism-based; design: dose 50 mg/kg, route oral
[45] = species on record: Homo sapiens; test: Inhibition of Class 1 PI3K/mTOR in human SKOV3 cells assessed as reduction in Akt phosphorylation at Ser473 residue incubated for 1 hr by InCell Western assay; format: cell-based
[46] = Toxicity in po dosed female Wistar rat; format: organism-based; conditions: in vivo
[47] = Toxicity in po dosed male Wistar rat; format: organism-based; conditions: in vivo
[48] = test system: Mus musculus; test: In vivo inhibition of Class 1 PI3K/mTOR in C57BL/6J mouse assessed as increase in plasma glucose level at 50 mg/kg, po administered as single dose after 10 mins to 1 hr by colorimetric assay; format: functional, organism-based
[49] = test system: Mus musculus; test: In vivo inhibition of Class 1 PI3K/mTOR in C57BL/6J mouse assessed as increase in plasma glucose level at 50 mg/kg, po administered as single dose after 2 hr by colorimetry based immunoassay; format: functional, organism-based
[50] = AUC (0 to 8 hrs) in C57BL/6J mouse plasma at 50 mg/kg, po administered as single dose by LC-MS analysis; format: ADME, organism-based; design: dose 50 mg/kg, time < 8 hr, route oral
[51] = AUC (0 to 8 hrs) in C57BL/6J mouse thigh muscle at 50 mg/kg, po administered as single dose by LC-MS analysis; format: ADME, organism-based; design: dose 50 mg/kg, time < 8 hr, route oral

T1 sequence (P42336 whole entry, the tested form may be a part, canonical isoform): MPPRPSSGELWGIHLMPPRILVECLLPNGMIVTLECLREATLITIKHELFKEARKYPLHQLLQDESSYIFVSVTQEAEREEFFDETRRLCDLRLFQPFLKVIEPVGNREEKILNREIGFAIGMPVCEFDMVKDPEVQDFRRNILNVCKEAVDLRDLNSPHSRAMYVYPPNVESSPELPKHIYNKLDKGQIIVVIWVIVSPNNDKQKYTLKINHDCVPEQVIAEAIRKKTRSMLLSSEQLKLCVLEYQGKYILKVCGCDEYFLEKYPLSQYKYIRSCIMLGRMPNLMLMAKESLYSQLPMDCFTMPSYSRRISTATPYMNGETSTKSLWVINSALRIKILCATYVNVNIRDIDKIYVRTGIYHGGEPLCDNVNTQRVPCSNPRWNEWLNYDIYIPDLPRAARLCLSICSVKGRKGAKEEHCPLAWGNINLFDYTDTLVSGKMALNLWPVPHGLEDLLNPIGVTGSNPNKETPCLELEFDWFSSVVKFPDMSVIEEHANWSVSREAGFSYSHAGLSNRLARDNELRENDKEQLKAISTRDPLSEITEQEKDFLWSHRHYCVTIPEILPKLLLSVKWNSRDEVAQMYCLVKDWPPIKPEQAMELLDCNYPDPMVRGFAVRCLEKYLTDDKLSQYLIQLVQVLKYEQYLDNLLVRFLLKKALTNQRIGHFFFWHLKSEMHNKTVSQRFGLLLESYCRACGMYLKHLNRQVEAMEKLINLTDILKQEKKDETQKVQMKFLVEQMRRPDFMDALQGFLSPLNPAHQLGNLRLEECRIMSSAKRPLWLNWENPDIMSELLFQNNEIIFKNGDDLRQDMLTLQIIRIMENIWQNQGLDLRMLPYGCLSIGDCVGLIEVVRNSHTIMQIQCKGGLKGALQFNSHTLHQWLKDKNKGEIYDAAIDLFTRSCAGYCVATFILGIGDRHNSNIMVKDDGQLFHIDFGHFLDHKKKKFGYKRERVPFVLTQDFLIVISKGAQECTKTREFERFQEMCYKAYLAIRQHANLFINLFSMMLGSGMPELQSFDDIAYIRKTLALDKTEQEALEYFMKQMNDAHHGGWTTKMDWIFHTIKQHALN
Sequence of Phosphatidylinositol 4,5-bisphosphate 3-kinase catalytic subunit gamma isoform (P48736 whole entry, the tested form may be a part, canonical isoform): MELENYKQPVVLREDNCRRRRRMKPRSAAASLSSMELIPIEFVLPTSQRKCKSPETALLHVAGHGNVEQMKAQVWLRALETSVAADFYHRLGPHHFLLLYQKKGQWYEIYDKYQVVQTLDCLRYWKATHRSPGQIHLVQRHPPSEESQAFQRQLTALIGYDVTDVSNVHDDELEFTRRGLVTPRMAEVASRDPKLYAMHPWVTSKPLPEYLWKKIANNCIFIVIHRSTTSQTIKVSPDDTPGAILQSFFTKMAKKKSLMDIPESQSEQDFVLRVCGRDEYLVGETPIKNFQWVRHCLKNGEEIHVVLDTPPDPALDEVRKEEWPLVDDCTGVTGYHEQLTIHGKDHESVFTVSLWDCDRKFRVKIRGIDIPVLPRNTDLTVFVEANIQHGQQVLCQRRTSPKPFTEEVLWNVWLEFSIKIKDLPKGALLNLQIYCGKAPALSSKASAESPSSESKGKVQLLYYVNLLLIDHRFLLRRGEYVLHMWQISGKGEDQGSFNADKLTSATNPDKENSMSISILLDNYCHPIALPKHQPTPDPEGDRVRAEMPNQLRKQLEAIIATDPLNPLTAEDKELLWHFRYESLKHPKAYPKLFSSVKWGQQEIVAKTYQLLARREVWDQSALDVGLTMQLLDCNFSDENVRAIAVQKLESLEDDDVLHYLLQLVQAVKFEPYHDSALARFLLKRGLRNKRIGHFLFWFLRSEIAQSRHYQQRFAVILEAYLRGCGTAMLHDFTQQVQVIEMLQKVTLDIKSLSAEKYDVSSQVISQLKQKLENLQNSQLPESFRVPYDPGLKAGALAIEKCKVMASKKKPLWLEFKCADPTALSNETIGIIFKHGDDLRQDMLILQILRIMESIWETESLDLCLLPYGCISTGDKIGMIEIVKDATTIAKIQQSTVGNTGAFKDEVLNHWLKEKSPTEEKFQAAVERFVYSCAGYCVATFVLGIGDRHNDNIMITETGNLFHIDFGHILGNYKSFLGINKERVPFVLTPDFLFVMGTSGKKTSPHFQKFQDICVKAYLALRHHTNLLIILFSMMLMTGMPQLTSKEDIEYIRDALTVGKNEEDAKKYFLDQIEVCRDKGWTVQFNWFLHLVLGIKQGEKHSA

## O=c1ccc2ccc(O)cc2o1 [UMBELLIFERONE]
[1]
  half-life: 0.352 h
[2]
  half-life: 0.198 h
[3]
  half-life: 0.17 h
[4]
  hepatocyte CLint: 124 µL/min/1e6 cells
[5]
  half-life: 0.185 h
[6]
  hepatocyte CLint: 116 µL/min/1e6 cells
[7]
  hepatocyte CLint: 65.5 µL/min/1e6 cells
[8]
  hepatocyte CLint: 138 µL/min/1e6 cells

## C[C@H]1COCCN1c1nc(-c2cnc(N)nc2C(F)(F)F)nc(N2CCOCC2)n1
[9]
  pIC50: 7.04
[10]
  pKi: 7.42
[11]
  pIC50: 6.79
[12]
  pKi: 8.40

## C[C@@H]1COC[C@H](C)N1c1nc(-c2cnc(N)cc2C(F)(F)F)nc(N2CCOCC2)n1
[9]
  pIC50: 6.91
[10]
  pKi: 7.71
[11]
  pIC50: 6.87
[12]
  pKi: 7.56

## C[C@@H]1COCCN1c1nc(-c2cnc(N)cc2C(F)(F)F)nc(N2CCOCC2)n1
[9]
  pIC50: 6.43
[10]
  pKi: 6.96
[11]
  pIC50: 6.39
[12]
  pKi: 7.27

## C[C@@H]1COCCN1c1nc(-c2cnc(N)cc2C(F)(F)F)nc(N2CCOC[C@H]2C)n1
[9]
  pIC50: 5.77
[10]
  pKi: 6.77
[11]
  pIC50: 5.95
[12]
  pKi: 6.16

## C[C@H]1COCCN1c1nc(-c2cnc(N)cc2C(F)F)nc(N2CCOCC2)n1
[1]
  half-life: 4.17 h
[13]
  pKd: 8.00
[14]
  NOAEL: 3 mg/kg/day
[15]
  AUC(0-t) at 672 h: 127 ng·h/mL
[16]
  AUC at 8 h: 335 ng·h/mL
[2]
  half-life: 2.37 h
[17]
  Activity: Active
[18]
  Activity: Active
[19]
  Tmax: 0.5 h
[20]
  remaining at 0.5 h: 106%
[21]
  remaining at 0.5 h: 81.5%
[22]
  remaining at 0.5 h: 73.2%
[23]
  half-life: 4.8 h
[24]
  CL/F: 20.9 mL/min/kg
[3]
  half-life: 2.37 h
[25]
  Cmax: 11900 ng/mL
[9]
  pIC50: 7.21
[26]
  inhibition: Active
[27]
  fraction unbound: 0.08
[28]
  half-life: 3.5 h
[29]
  Cmax: 7800 ng/mL
[30]
  inhibition: Active
[31]
  NOAEL: 1 mg/kg/day
[32]
  Tmax: 0.5 h
[10]
  pKi: 8.13
[33]
  Activity: Active
[34]
  inhibition: Active
[35]
  AUC at 8 h: 599 ng·h/mL
[36]
  pKd: 9.08
[37]
  inhibition: Active
[38]
  AUC(0-t) at 672 h: 1070 ng·h/mL
[39]
  remaining at 0.5 h: 97.4%
[40]
  Activity: Non-Toxic
[41]
  Tmax: 0.5 h
[42]
  AUC(0-t) at 8 h: 46500 ng·h/mL
[43]
  half-life: 4.7 h
[4]
  hepatocyte CLint: 7 µL/min/1e6 cells
[5]
  half-life: 3.2 h
[44]
  Cmax: 12600 ng/mL
[45]
  inhibition: Active
[46]
  NOAEL: 0.5 mg/kg
[11]
  pIC50: 7.21
[6]
  hepatocyte CLint: 11 µL/min/1e6 cells
[12]
  pKi: 7.95
[47]
  NOAEL: 1 mg/kg/day
[7]
  hepatocyte CLint: 6 µL/min/1e6 cells
[48]
  inhibition: Active
[8]
  hepatocyte CLint: 10 µL/min/1e6 cells
[49]
  inhibition: Active
[50]
  AUC(0-t) at 8 h: 27900 ng·h/mL
[51]
  AUC(0-t) at 8 h: 39200 ng·h/mL

## Nc1cc(C(F)(F)F)c(-c2nc(N3CCOCC3)nc(N3CCOCC3)n2)cn1
[17]
  Activity: Active
[33]
  Activity: Active

## C[C@H]1COC[C@H](C)N1c1nc(-c2cnc(N)cc2C(F)(F)F)nc(N2CCOCC2)n1
[9]
  pIC50: 7.00
[10]
  pKi: 7.23
[11]
  pIC50: 6.90
[12]
  pKi: 7.82

## C[C@H]1COC[C@H](C)N1c1nc(-c2cnc(N)cc2C(F)(F)F)nc(N2[C@@H](C)COC[C@@H]2C)n1
[9]
  pIC50: 6.21
[10]
  pKi: 6.58
[11]
  pIC50: 6.27
[12]
  pKi: 7.43

## C[C@H]1COCCN1c1cc(-c2cnc(N)cc2C(F)F)nc(N2CCOCC2)n1
[9]
  pIC50: 6.21
[10]
  pKi: 7.37
[11]
  pIC50: 6.12
[12]
  pKi: 7.86

## C[C@H]1COCCN1c1nc(-c2cnc(N)cc2C(F)(F)F)nc(N2CCOCC2)n1
[9]
  pIC50: 6.71
[10]
  pKi: 7.59
[11]
  pIC50: 7.05
[12]
  pKi: 8.08

## Nc1cc(C(F)(F)F)c(-c2nc(N3CC4CCC(C3)O4)nc(N3CC4CCC(C3)O4)n2)cn1
[9]
  pIC50: 6.02
[10]
  pKi: 6.75
[11]
  pIC50: 6.16
[12]
  pKi: 6.14
